Measured values from US20240101599A1, “PEPTIDE, CELL GROWTH PROMOTER, PROTEIN PRODUCTION PROMOTER, CULTURE MEDIUM, CELL GROWTH METHOD USING PEPTIDE, AND PROTEIN PRODUCTION METHOD USING PEPTIDE” (Maruhachi Muramatsu, Inc., priority 2020, published 2024).
Peptide text beside a SMILES is read from it.

Test system: CHO DP-12
Experiment: Cell growth test and protein production test on each peptide and combination of peptides on coating agent
Format: cell-based
Conditions: one type of tripeptide: GPP 1.1 mM, DGP 2.2 mM, GEK 2.1 mM, AGK 2.0 mM, 5 days; for Amount of protein produced, Average / Viability, Average: average n=3; for Amount of protein produced, Average / Amount of protein produced, 1 / Amount of protein produced, 2 / Amount of protein produced, 3: ELISA; for Cells cell count, Average: poly-L-lysine coating, n=3; for Amount of protein produced, 1 / Viability, 1: replicate 1; for Amount of protein produced, 2 / Viability, 2: replicate 2; for Amount of protein produced, 3 / Viability, 3: replicate 3
Procedure: Peptides having the sequences of Gly-Pro-Pro (GPP), Asp-Gly-Pro (DGP), Gly-Glu-Lys (GEK), and Ala-Gly-Lys (AGK) were synthesized to prepare each peptide solution such that the concentration was a concentration at which the cell number increased the most within a range of 0 mM to 5 mM. In other words, Gly-Pro-Pro (GPP) was adjusted to 11 mM, Asp-Gly-Pro (DGP) was adjusted to 22 mM, Gly-Glu-Lys (GEK) was adjusted to 21 mM, and Ala-Gly-Lys (AGK) was adjusted to 20 mM, and an amount of 1/10 of the total culture medium volume was added to each well immediately before the cell culture test such that final concentrations were 1.1 mM, 2.2 mM, 2.1 mM, and 2.0 mM, respectively. Poly-L-lysine (Peptide Institute, Inc., Poly-L-Lysine Hydrochloride, code: 3075) was prepared to 0.1 mg/mL, and 200 μL was dispensed into each well of a 24-well plate, which was left to stand in an incubator at 37° C. for 2 hours. After removing the residual liquid with an aspirator, rinsing was performed with distilled water, irradiation was performed with a UV lamp in a clean bench without a lid, and drying was performed overnight to sterilize. A cell suspension prepared such that CHO DP-12 (ATCC, Cat. No. CRL-12445) was at 2×10^4 cells/well and 500 μL was seeded in a 24-well plate and cultured in an incubator at 37° C. and 5% CO2 for 24 hours. As a culture medium, a DMEM basal medium in which 200 nM of methotrexate and 2 μg/mL of insulin were blended in a DMEM culture medium (Gibco) containing 10% FBS was used.
After removing the culture medium from each well and washing with the DMEM basal medium (500 μL), 450 μL of a new DMEM basal medium was dispensed into each well, and each peptide solution (50 μL) was added (total 500 μL/well) to perform culture for 5 days.
As peptides, in addition to single GPP, DGP, GEK, and AGK, combinations of GPP+GEK, GPP+AGK, DGP+GEK, GEK+AGK, DGP+AGK, GPP+GEK+AGK, GPP+DGP+AGK, and GPP+DGP+GEK were used. A similar culture test was performed using a system containing neither peptide nor FBS as a comparative sample.
In order to measure the amount of protein produced, 100 μL of the culture medium supernatant was recovered in a 1.5 mL tube and diluted to quantitatively determine the amount of protein produced by an ELISA method.
In order to recover the cells, the culture medium in each well was recovered in a 1.5 mL tube to be rinsed with 200 μL of the DMEM basal medium, and the rinsed liquid was also recovered in the same 1.5 mL tube. Thereafter, 100 μL of trypsin was added and incubated for 3 minutes. After rinsing with 300 μL of the DMEM basal medium containing 10% FBS, the rinsed liquid was also recovered in the same 1.5 mL tube. After rinsing again with 200 μL of the DMEM basal medium containing 10% FBS, the rinsed liquid was also recovered in the same 1.5 mL tube.
A centrifugation operation was performed on the cells recovered in the 1.5 mL tube. The centrifugation conditions were 1,000 rpm, 10 minutes, and 4° C.
The supernatant was removed, and 300 μL of Cold PBS (phosphate buffered saline) was added to perform a centrifugation operation under the same conditions. The present operation was repeated twice.
Suspension was carried out with 100 μL of Binding Buffer, and 2 μL of propidium iodide (PI) was added and stirred in the tube to cause a reaction for 15 minutes at room temperature and with light shielding. Thereafter, the viable cell count and the cell viability were measured with a flow cytometer.
The above preparation, culture, and measurement were performed with n=3. Table 17, FIG. 17, Table 20, FIG. 20, Table 23, and FIG. 23 show the viable cell count in each peptide solution. Table 18, FIG. 18, Table 21, FIG. 21, Table 24, and FIG. 24 show the cell viability in each peptide solution. Table 19, FIG. 19, Table 22, FIG. 22, Table 25, and FIG. 25 show the amount of protein produced in each peptide solution.

| Compound | Amount of protein produced, Average | Viability, Average | Cells cell count, Average | Amount of protein produced, 1 | Viability, 1 | Amount of protein produced, 2 | Viability, 2 | Amount of protein produced, 3 | Viability, 3 |
| --- | --- | --- | --- | --- | --- | --- | --- | --- | --- |
| C[C@H](N)C(=O)NCC(=O)N[C@@H](CCCCN)C(=O)O [AGK, Ala-Gly-Lys] (H-Ala-Gly-Lys-OH; N-terminus and C-terminus assumed) | 6.92 mg/L | 88.5 | 19.0887 ×10^4 | 7.36 mg/L | 89.0 | 6.61 mg/L | 88.5 | 6.78 mg/L | 88.1 |
| NCCCC[C@H](NC(=O)[C@H](CCC(=O)O)NC(=O)CN)C(=O)O [GEK, Gly-Glu-Lys] (H-Gly-Glu-Lys-OH; N-terminus and C-terminus assumed) | 5.59 mg/L | 86.9 | 15.9345 ×10^4 | 6.13 mg/L | 86.5 | 4.59 mg/L | 87.4 | 6.06 mg/L | 86.7 |
| Asp-Gly-Pro [DGP] | 5.24 mg/L | 86.9 | 14.6333 ×10^4 | 5.37 mg/L | 86.3 | 4.90 mg/L | 87.3 | 5.44 mg/L | 87.2 |
| Gly-Pro-Pro [GPP] | 5.86 mg/L | 88.2 | 15.5502 ×10^4 | 5.78 mg/L | 88.9 | 5.31 mg/L | 87.9 | 6.50 mg/L | 87.9 |
